From US20070191627A1, “Stilbene derivatives and their use in medicaments” (priority 2003, published 2007) come the findings set out here.

SMILES strings stand for the structures.

In the first assay the target is T1, COX 2 (Homo sapiens, UniProt P35354).
T1 construct: purchased IBL Products Company, Hamburg, Germany
T1 sequence (P35354 18-604): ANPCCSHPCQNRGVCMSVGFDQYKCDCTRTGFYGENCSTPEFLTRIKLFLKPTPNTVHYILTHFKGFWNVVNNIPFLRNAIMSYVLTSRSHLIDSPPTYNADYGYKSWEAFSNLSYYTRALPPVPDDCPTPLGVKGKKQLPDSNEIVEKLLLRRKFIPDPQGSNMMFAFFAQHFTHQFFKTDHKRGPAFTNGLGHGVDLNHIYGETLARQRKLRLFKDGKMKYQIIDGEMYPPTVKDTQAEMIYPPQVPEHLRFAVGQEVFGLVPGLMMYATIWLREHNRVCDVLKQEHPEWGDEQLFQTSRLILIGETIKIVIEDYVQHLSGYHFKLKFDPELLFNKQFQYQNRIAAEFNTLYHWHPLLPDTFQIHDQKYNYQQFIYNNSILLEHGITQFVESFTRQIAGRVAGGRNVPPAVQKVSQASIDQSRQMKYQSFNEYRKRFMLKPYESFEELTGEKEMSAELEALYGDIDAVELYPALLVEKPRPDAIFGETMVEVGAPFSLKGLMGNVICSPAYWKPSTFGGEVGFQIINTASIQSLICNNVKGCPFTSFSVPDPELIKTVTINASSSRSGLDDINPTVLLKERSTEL
Put plainly: COX (human) inhibitor screening assay, COX 2. Type of assay: biochemical.
Details: not given
`COc1cc(C=Cc2cc(OC)c(OC)c(OC)c2)cc(OC)c1` [M2, 3,3′,4,5,5′-Pentamethoxystilbene] gave an IC50 of 0.6 µM.

The molecule `COc1cc(C=Cc2cc(OC)c(OC)c(OC)c2)cc(OC)c1OC` [M3, 3,3′,4,4′,5,5′-Hexamethoxystilbene] gave an IC50 of 0.5 µM.

As for `Oc1cc(O)cc(C=Cc2cc(O)cc(O)c2)c1` [M6, 3,3′,5,5′-Tetrahydroxystilbene], the IC50 is under 0.001 µM.

Staying with this assay, now noted: ratio of COX 2 IC50 to COX 1 IC50.
`COc1cc(C=Cc2cc(OC)c(OC)c(OC)c2)cc(OC)c1` [M2, 3,3′,4,5,5′-Pentamethoxystilbene]: the “COX2/COX1 Ratio” value was found to be 0.06.

With `COc1cc(C=Cc2cc(OC)c(OC)c(OC)c2)cc(OC)c1OC` [M3, 3,3′,4,4′,5,5′-Hexamethoxystilbene], the “COX2/COX1 Ratio” value is recorded as 0.05.

On to `Oc1cc(O)cc(C=Cc2cc(O)cc(O)c2)c1` [M6, 3,3′,5,5′-Tetrahydroxystilbene], for which the “COX2/COX1 Ratio” value is given as under 0.1.

In another assay the test system is DU-145. Put plainly: Clonogenic test series (7 d) in DU-145 prostate cancer cells. Type of assay: cell-based. Conditions: Homo sapiens, DU-145, 168 h.
Take `COc1cc(C=Cc2cc(OC)c(OC)c(OC)c2)cc(OC)c1` [M2, 3,3′,4,5,5′-Pentamethoxystilbene]: the IC50 is 68 µM.

As to `COc1cc(C=Cc2cc(OC)c(OC)c(OC)c2)cc(OC)c1OC` [M3, 3,3′,4,4′,5,5′-Hexamethoxystilbene], the IC50 is 12.5 µM.

As for `Oc1cc(O)cc(C=Cc2cc(O)cc(O)c2)c1` [M6, 3,3′,5,5′-Tetrahydroxystilbene], the IC50 was found to be 17 µM.

A further assay concerns HL-60 human promyelocyte leukemia cells. The experiment in a line: Growth inhibition assay in HL-60 cells (72 h, cell count). Type of assay: cell-based. Conditions: Homo sapiens, HL-60; 1st determination series, 72 hours; read-out: IC50 (μM), inhibition of growth of HL-60 human promyelocyte leukemia cells. The protocol:
The human promyelocyte leukemia cell line HL-60 was purchased from the ATCC (American Type Culture Collection, Rockville, Md., USA). The cells were cultured in RPMI 1640 medium with 10% heat-inactivated fetal calf serum (FCS) (GIBCO, Grand Island Biological Co., Grand Island, N.Y., USA) and with 1% penicillin/streptomycin in a humidified atmosphere with 5% CO2.
The cell numbers were determined by means of a microcell counter CC-108 (Sysmex, Kobe, Japan). For the tests, cells in the logarithmic growth phase were used.
Logarithmically-growing HL-60 cells were prepared in a density of 0.1×10^6 cells/ml in tissue culture flasks and incubated with various concentrations of the stilbene derivatives to be examined. After 72 hours, the cells were counted by means of the microcell counter. The viability of the cells was determined by means of trypan blue staining. Numbers of viable cells were calculated as results.
After 72 hours, the cells were counted by means of the microcell counter. The viability of the cells was determined by means of trypan blue staining. Numbers of viable cells were calculated as results.
Take `COc1cc(C=Cc2cc(OC)c(OC)c(OC)c2)cc(OC)c1` [M2, 3,3′,4,5,5′-Pentamethoxystilbene]: the IC50 was determined as 25 µM.

In the case of `COc1cc(C=Cc2cc(OC)c(OC)c(OC)c2)cc(OC)c1OC` [M3, 3,3′,4,4′,5,5′-Hexamethoxystilbene], the IC50 is over 100 µM.

Take `Oc1cc(O)cc(C=Cc2cc(O)cc(O)c2)c1` [M6, 3,3′,5,5′-Tetrahydroxystilbene]: the IC50 stood at 12.5 µM.

The assay is the same for the next values; noted with them: Homo sapiens, HL-60; Table 3, 72 h; read-out: Growth inhibition (72 h) HL-60.
With `COc1cc(C=Cc2cc(OC)c(OC)c(OC)c2)cc(OC)c1` [M2, 3,3′,4,5,5′-Pentamethoxystilbene], the IC50 stood at 25 µM.

`COc1cc(C=Cc2cc(OC)c(OC)c(OC)c2)cc(OC)c1OC` [M3, 3,3′,4,4′,5,5′-Hexamethoxystilbene]: the IC50 is over 100 µM.

Regarding `Oc1cc(O)cc(C=Cc2cc(O)cc(O)c2)c1` [M6, 3,3′,5,5′-Tetrahydroxystilbene], the IC50 worked out at 12.5 µM.

The next assay has as its system PC-3. The experiment in a line: Clonogenic test series (7 d) in PC-3 prostate cancer cells. Type of assay: cell-based. Conditions: Homo sapiens, PC-3, 168 h.
`COc1cc(C=Cc2cc(OC)c(OC)c(OC)c2)cc(OC)c1` [M2, 3,3′,4,5,5′-Pentamethoxystilbene] came in with an IC50 of 21 µM.

Regarding `COc1cc(C=Cc2cc(OC)c(OC)c(OC)c2)cc(OC)c1OC` [M3, 3,3′,4,4′,5,5′-Hexamethoxystilbene], the IC50 was 5.5 µM.

The molecule `Oc1cc(O)cc(C=Cc2cc(O)cc(O)c2)c1` [M6, 3,3′,5,5′-Tetrahydroxystilbene] came in with an IC50 of 16 µM.

The next assay deals with T2, COX 1 (Homo sapiens, UniProt P23219).
T2 construct: purchased IBL Products Company, Hamburg, Germany
T2 sequence (P23219 24-599): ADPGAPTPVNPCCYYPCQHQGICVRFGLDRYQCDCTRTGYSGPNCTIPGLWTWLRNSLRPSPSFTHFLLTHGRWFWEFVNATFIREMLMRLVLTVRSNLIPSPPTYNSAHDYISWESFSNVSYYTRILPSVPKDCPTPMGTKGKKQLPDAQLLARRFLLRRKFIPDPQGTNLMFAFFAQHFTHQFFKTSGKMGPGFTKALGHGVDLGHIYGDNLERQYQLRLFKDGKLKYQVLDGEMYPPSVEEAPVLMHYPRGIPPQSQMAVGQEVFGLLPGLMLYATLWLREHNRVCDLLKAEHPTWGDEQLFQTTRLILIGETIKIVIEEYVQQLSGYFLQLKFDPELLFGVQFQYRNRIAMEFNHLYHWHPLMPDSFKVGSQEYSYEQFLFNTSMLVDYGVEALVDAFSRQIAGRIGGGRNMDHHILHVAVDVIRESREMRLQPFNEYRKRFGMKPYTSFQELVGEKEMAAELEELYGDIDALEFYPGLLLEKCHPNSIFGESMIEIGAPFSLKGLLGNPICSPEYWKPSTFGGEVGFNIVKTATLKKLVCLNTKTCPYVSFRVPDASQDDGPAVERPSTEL
The experiment in a line: COX (human) inhibitor screening assay, COX 1. Type of assay: biochemical.
Details: not given
Molecule `COc1cc(C=Cc2cc(OC)c(OC)c(OC)c2)cc(OC)c1` [M2, 3,3′,4,5,5′-Pentamethoxystilbene] showed an IC50 of 10 µM.

`COc1cc(C=Cc2cc(OC)c(OC)c(OC)c2)cc(OC)c1OC` [M3, 3,3′,4,4′,5,5′-Hexamethoxystilbene]: the IC50 was determined as 10 µM.

As for `Oc1cc(O)cc(C=Cc2cc(O)cc(O)c2)c1` [M6, 3,3′,5,5′-Tetrahydroxystilbene], the IC50 came to 0.01 µM.

The next assay relates to LNCaP. The experiment in a line: Clonogenic test series (7 d) in LNCaP prostate cancer cells. Type of assay: cell-based. As to conditions: Homo sapiens, 168 h, LNCaP cells respond to 5-alpha-dihydrotestosterone.
Molecule `COc1cc(C=Cc2cc(OC)c(OC)c(OC)c2)cc(OC)c1` [M2, 3,3′,4,5,5′-Pentamethoxystilbene] displayed an IC50 of over 100 µM.

In the case of `COc1cc(C=Cc2cc(OC)c(OC)c(OC)c2)cc(OC)c1OC` [M3, 3,3′,4,4′,5,5′-Hexamethoxystilbene], the IC50 was 37 µM.

On to `Oc1cc(O)cc(C=Cc2cc(O)cc(O)c2)c1` [M6, 3,3′,5,5′-Tetrahydroxystilbene], for which the IC50 came out at 84 µM.
